These results are taken from patent US10179928B2, “Methods and tests for screening bacterial biofilms” (Helmholtz-Zentrum fuer Infektionsforschung GmbH, priority 2009, dated 2019).

Usually MIC stands for the smallest concentration in the dilution series that meets the test's criterion for growth inhibition. Low readings indicate a more susceptible organism, high ones a less susceptible organism.

Test [1] has as its system P. aeruginosa biofilms (PA14 and five clinical CF isolates). The test is described as follows: Biofilm susceptibility test: 96-well biofilm, BacLight (Syto9/PI) staining, automated CLSM, PHLIP biovolume analysis. It is filed as cell-based, Pseudomonas aeruginosa. The method, then: The evening before the inoculation of the 96-well microtitre plates, inoculate bacteria from a single colony into 2 ml of LB medium in a tube and incubate the preculture in an orbital shaker (180 r.p.m.) at 37° C. overnight (˜16 h). The next morning, prepare a subculture from the overnight culture by diluting it with fresh LB medium to an OD600 of 0.02. The total volume of the inoculated medium depends on the number of replicates and the number of antibiotics or antibiotic dilutions to be tested for this isolate. II. Biofilm Growth Take off the lid of the designated number of sterile half-area μClear microtitre plates and use 100 μl per well of the diluted overnight culture(s) (Step 2) to inoculate the wells (testing different antibiotics, antibiotic dilutions and a minimum of two replicates for each combination). Thereafter, seal the plate(s) with an air-permeable cover foil (no lid) and incubate for 24 h at 37° C. in an incubator with humid atmosphere. III. Antibiotic-Treatment of the Biofilms After 24 h of growth, the biofilms within the wells of the microtitre plate were exposed to antibiotics. Stock solutions of the chosen antibiotics in LB medium were prepared and two-fold serial dilutions in fresh LB-medium were performed. […] To add the antibiotic dilutions to the microtitre plates, the plates were taken out of the incubator into a safety cabinet. The cover foil was removed and 40 μl antibiotic solution to the appropriate well (different antibiotics/concentrations) were added except to the control well(s) where only LB is added. IV. Staining of the Biofilms Prepare staining solution as described above (see REAGENT SETUP). […] Cover the microtitre plate with a fresh air-permeable foil and return the plate to the incubator. Continue incubation for 24 h at 37° C. before imaging. Immediately before microscopy (after ˜48 h total incubation time), remove the microtitre plate with treated biofilms from the incubator. V. Microscopy Automated Run or Manual Run When using the automated confocal Opera system, two positions at the center of each well are chosen automatically to acquire z-stacks of the biofilms. […] Focal planes are acquired starting from the bottom of the plate (position 0) with an interplane distance (z-step size) of 3 μm (using a 40×/0.85 numerical-aperture (NA) air objective). Syto9 is excited with a 488-nm laser and detected with a 540/75 nm band-pass emission filter, whereas PI is excited at 561 nm and detected with a 600/40 nm band-pass emission filter. If a non-automated confocal microscope is used, choose adequate filter settings for Syto9 and PI. To enhance comparability, biofilm images should be recorded at the center of a well. In a manual process, due to time reasons image acquisition might be reduced to one stack per well if 2-3 replicates of the same sample are present within the plate. VI. Data Analysis Computer Calculation Save the image stacks as single .bmp image files (image files may require conversion, for example, with MATLAB software). Batch-process all images using a background subtraction tool (for example, the ‘Subtract Background’ command in ImageJ). Following background subtraction, use an Otsu-thresholding algorithm to obtain thresholded binary images (8-bit format). Reduce the appearance of planktonic bacteria and outlying pixels with a noise filter (such as the ‘Remove Outliers’ command in ImageJ). Steps 11-13 are exemplified in Supplementary FIG. 1. Reassemble the image stacks from the individual processed binary images for each position and channel with Auto PHLIP-ML software. Use the MATLAB-based tool PHLIP (without connected volume filtration) to calculate descriptive parameters of biofilms (including biovolume, substratum coverage, area-to-volume ratio, spatial spreading and 3D colocalization) from the integrated total of each individual slice of a thresholded z-stack.

The test system of test [2] is P. aeruginosa PA14 and five clinical strains. In words: CFU determinations of whole well content (planktonic and biofilm bacteria). It is filed as cell-based, Pseudomonas aeruginosa.
In test [3] the test system is P. aeruginosa PA14 and five clinical CF isolates (planktonic). In words: Planktonic MIC determination with the semi-automated Vitek2 system. The settings on record: for MIC: Pseudomonas aeruginosa, Vitek2.
Protocol: Clinical isolates were recovered from the respiratory tracts of chronically infected people with CF at the Hannover Medical School and differed according to morphology and resistance profile. The MICs were determined by the use of the semi-automated Vitek2 system (Biomerieux).
The subject of test [4] is mixed bacterial communities from sputum specimens of two cystic fibrosis patients. The test is described as follows: Multi species biofilm susceptibility test of sputum specimens. It is filed as cell-based. The following applies: one sputum sample; 1 mg ml−1.

Values after ≈ are worked out from the molar mass of the structure shown. A value given as a limit tells only on which side of the number the result lay.

In the case of `NC[C@H]1O[C@H](O[C@H]2[C@H](O)[C@@H](O[C@H]3O[C@H](CO)[C@@H](O)[C@H](N)[C@H]3O)[C@H](N)C[C@@H]2N)[C@H](N)C[C@@H]1O` [tobramycin], the biofilm response result is “✓ (Biofilms were categorized as responsive (✓) if a consistent increase in the fraction of red and yellow (colocalized) fluorescenct biovolume (reaching ~ 80% of the total biovolume) within a given antibiotic concentration range was detected.)” in test [1] (isolate 5497); “✓ (Biofilms were categorized as responsive (✓) if a consistent increase in the fraction of red and yellow (colocalized) fluorescenct biovolume (reaching ~ 80% of the total biovolume) within a given antibiotic concentration range was detected.)” in test [1] (isolate 5520); “✓ (Biofilms were categorized as responsive (✓) if a consistent increase in the fraction of red and yellow (colocalized) fluorescenct biovolume (reaching ~ 80% of the total biovolume) within a given antibiotic concentration range was detected.)” in test [1] (isolate PA14). For the same compound, in test [1] (strain 5529 at 512 μg ml−1), the “fraction of the RY biovolume of the total biovolume” value is listed as approximately 80%. Besides, the “fraction of the RY (red+yellow) biovolume of the total biovolume” value in test [1] (strains PA14, 5497 and 5520, increasing concentrations, 2-512 μg ml−1) is on record as approximately 80%. In addition, in test [2] (strains 5522, 5524 and 5529, low antibiotic concentrations), the “change in CFUs” value is “minor decrease”. Further, the CFU counts in test [2] (strains PA14, 5497 and 5520, increasing concentrations) was ≤ 10^5 cells per ml. Also, the MIC was not above 0.25 µg/mL in test [3] (isolate 5497, planktonic); 1 µg/mL (≈ 2.14 µM) in test [3] (isolate 5520, planktonic); more than 32 µg/mL in test [3] (isolate 5522, planktonic); 1 µg/mL (≈ 2.14 µM) in test [3] (isolate 5524, planktonic); more than 32 µg/mL in test [3] (isolate 5529, planktonic); 1 µg/mL (≈ 2.14 µM) in test [3] (isolate PA14, planktonic). Further, the MIC interpretation category entry in test [3] (isolate 5497, Vitek2) is “S”; in test [3] (isolate 5520, Vitek2), “S”; in test [3] (isolate 5522, Vitek2) it was “R”; in test [3] (isolate 5524, Vitek2), “S”; in test [3] (isolate 5529, Vitek2) it was “R”; in test [3] (isolate PA14, Vitek2), “S”.
With colistin, the “biofilm responsiveness” value in test [4] is reported as “responsive”.
Regarding `CC(C)(O/N=C(\C(=O)N[C@@H]1C(=O)N2C(C(=O)[O-])=C(C[n+]3ccccc3)CS[C@H]12)c1csc(N)n1)C(=O)O` [ceftazidime], the biofilm response entry in test [1] (isolate 5497) was “✓ (Biofilms were categorized as responsive (✓) if a consistent increase in the fraction of red and yellow (colocalized) fluorescenct biovolume (reaching ~ 80% of the total biovolume) within a given antibiotic concentration range was detected.)”. Also, the “RY biovolume of the total biovolume” value in test [1] (strain 5497) is approximately 80%. Further, the CFU count in test [2] (strain 5497) was 10^6 cells per ml; in test [2] (strain PA14, without correlated imaging data), 10^6 cells per ml. Further, the MIC in test [3] (isolate 5497, planktonic) was 1 µg/mL (≈ 1.83 µM); in test [3] (isolate 5520, planktonic) it was 4 µg/mL (≈ 7.32 µM); in test [3] (isolate 5522, planktonic) it was 4 µg/mL (≈ 7.32 µM); in test [3] (isolate 5524, planktonic), 2 µg/mL (≈ 3.66 µM); in test [3] (isolate 5529, planktonic) it was not above 1 µg/mL; in test [3] (isolate PA14, planktonic), not above 1 µg/mL. Further, the MIC interpretation category result in test [3] (isolate 5497, Vitek2) is “S”; in test [3] (isolate 5520, Vitek2), “S”; in test [3] (isolate 5522, Vitek2), “S”; in test [3] (isolate 5524, Vitek2), “S”; in test [3] (isolate 5529, Vitek2), “S”; in test [3] (isolate PA14, Vitek2), “S”.
Turning to `C[C@@H](O)[C@H]1C(=O)N2C(C(=O)O)=C(S[C@@H]3CN[C@H](C(=O)N(C)C)C3)[C@H](C)[C@H]12` [meropenem], in test [1] (all strains), the “susceptibility under biofilm growth conditions” value was “resistance”. Also, the CFU counts in test [2] (strain 5529 at 128 μg ml−1) is recorded as ~10^6 cells per ml. Also, the MIC is not above 0.25 µg/mL in test [3] (isolate 5497, planktonic); 0.5 µg/mL (≈ 1.3 µM) in test [3] (isolate 5520, planktonic); 2 µg/mL (≈ 5.22 µM) in test [3] (isolate 5522, planktonic); not above 0.25 µg/mL in test [3] (isolate 5524, planktonic); 1 µg/mL (≈ 2.61 µM) in test [3] (isolate 5529, planktonic); not above 0.25 µg/mL in test [3] (isolate PA14, planktonic). Besides, the MIC interpretation category result in test [3] (isolate 5497, Vitek2) is “S”; in test [3] (isolate 5520, Vitek2), “S”; in test [3] (isolate 5522, Vitek2), “S”; in test [3] (isolate 5524, Vitek2), “S”; in test [3] (isolate 5529, Vitek2) it was “S”; in test [3] (isolate PA14, Vitek2) it was “S”.
In the case of `CC(C)O` [isopropanol], the “fraction of green fluorescence in killed biofilm” value in test [1] (biofilms of three clinical isolates, killing control) is 10-20%. Also, in test [2] (biofilms of three clinical isolates), the “killing verified by CFU counts” value is reported as “efficiently killed”.
